In patent US9700344B2, “Method for treating chronic wounds with an extracellular polymeric substance solvating system” (priority 2008, dated 2017):

Experiments:
S. aureus = test: Quantitative PCR analysis of relative bacterial levels in treated biofilms; type: cell-based, Staphylococcus aureus Mu50; details: DNA extraction and quantitative PCR of treated mixed biofilm; Control 23.5
Experimental: Pseudomonas aeruginosa PAO1 (ATCC number: BAA-47), Enterococcus faecalis V583 (ATCC number: 700802), and Staphylococcus aureus Mu50 (ATCC number: 700699) grown on agar plates made from tryptic soy broth (TSB, Sigma Chemical Co., St. Louis, Mo., USA) were inoculated into TSB broth and grown at 37° C. in a shaker for 16 hr. An aliquot was diluted in TSB broth to a series of dilutions for each individual bacteria type. The diluted bacteria were plated out to count colony forming units (CFU). They were further diluted to 1×10^6 cfu ml^−1 and mixed equally as inoculums. Bolton broth (Oxoid Ltd, Basingstock, Hampshire, England) with 50% Bovine plasma (Biomeda, Foster City, Calif., USA) was used for biofilm formation media. Glass 16×150 mm test tubes with caps were autoclaved, and 7 ml biofilm formation media aseptically dispensed in each tube. The normalized cultures of the three bacteria were mixed and 10 μl portions of the combined and normalized 1×10^6 CFU ml^−1 culture were inoculated into glass tubes by ejecting the pipette tips into the tubes. […]
The resulting mixtures were stirred at 37° C. and 140 rpm for 1, 2, 3 and 4 hours. […] The biomass dry weight was measured as the total weight minus the empty tube weight measured before use. […] A separate set of tubes in triplicate was used for DNA extraction and quantitative PCR analysis to determine relative bacterial levels in the treated biofilms.

[1] = test system: biofilms of Pseudomonas aeruginosa PAO1, Enterococcus faecalis V583 and Staphylococcus aureus Mu50; test: Biofilm dry weight after incubation of formed three-species biofilms with treatments; type: cell-based; details: biomass dry weight of treated mixed biofilm, 80° C. 48 hours drying; incubation 37° C., 140 rpm; triplicate; Control 126
Experimental: (§1) Pseudomonas aeruginosa PAO1 (ATCC number: BAA-47), Enterococcus faecalis V583 (ATCC number: 700802), and Staphylococcus aureus Mu50 (ATCC number: 700699) grown on agar plates made from tryptic soy broth (TSB, Sigma Chemical Co., St. Louis, Mo., USA) were inoculated into TSB broth and grown at 37° C. in a shaker for 16 hr. An aliquot was diluted in TSB broth to a series of dilutions for each individual bacteria type. The diluted bacteria were plated out to count colony forming units (CFU). They were further diluted to 1×10^6 cfu ml^−1 and mixed equally as inoculums. Bolton broth (Oxoid Ltd, Basingstock, Hampshire, England) with 50% Bovine plasma (Biomeda, Foster City, Calif., USA) was used for biofilm formation media. […]
(§2) In a series of runs the formed biofilms were washed and then incubated with the three CAZS solutions, then associated with a 30 μg/ml solution of Gentamicin sulfate (MP Biomedicals, Illkirch, France) in distilled water, or with a 20 ppm solution of 2,4,4′-trichloro-2-hydroxydiphenyl ether (Triclosan, KIC Chemicals, New Paltz, N.Y., USA) dissolved in propylene glycol (ScienceLab, Houston, Tex., USA). […] The biomass dry weight was measured as the total weight minus the empty tube weight measured before use. […] A separate set of tubes in triplicate was used for DNA extraction and quantitative PCR analysis to determine relative bacterial levels in the treated biofilms.

E. faecalis = test: Quantitative PCR analysis of relative bacterial levels in treated biofilms; type: cell-based, Enterococcus faecalis V583; details: DNA extraction and quantitative PCR of treated mixed biofilm; Control 29.7
Experimental: as §1, §2

P. aeruginosa = test: as above; type: cell-based, Pseudomonas aeruginosa PAO1; details: DNA extraction and quantitative PCR of treated mixed biofilm; Control 46.8
Experimental: as §1, §2

Compound | Relative Bacterial Levels S. aureus (S. aureus) | Dry Weight [1] | Relative Bacterial Levels E. faecalis (E. faecalis) | Relative Bacterial Levels P. aeruginosa (P. aeruginosa)
Oc1cc(Cl)ccc1Oc1ccc(Cl)cc1Cl [20 ppm Triclosan, 2,4,4′-trichloro-2-hydroxydiphenyl ether] | 0.13 | 88 mg | 39.9 | 60.0
Gentamicin sulfate [20 mg/ml Gentamicin] | 49.6 | 78 mg | 50.3 | 0.2
